Target: T1, human TLR8 (hTLR8) (Homo sapiens, UniProt Q9NR97)
T1 construct: expressed in transfected cells
T1 sequence (Q9NR97 27-1041): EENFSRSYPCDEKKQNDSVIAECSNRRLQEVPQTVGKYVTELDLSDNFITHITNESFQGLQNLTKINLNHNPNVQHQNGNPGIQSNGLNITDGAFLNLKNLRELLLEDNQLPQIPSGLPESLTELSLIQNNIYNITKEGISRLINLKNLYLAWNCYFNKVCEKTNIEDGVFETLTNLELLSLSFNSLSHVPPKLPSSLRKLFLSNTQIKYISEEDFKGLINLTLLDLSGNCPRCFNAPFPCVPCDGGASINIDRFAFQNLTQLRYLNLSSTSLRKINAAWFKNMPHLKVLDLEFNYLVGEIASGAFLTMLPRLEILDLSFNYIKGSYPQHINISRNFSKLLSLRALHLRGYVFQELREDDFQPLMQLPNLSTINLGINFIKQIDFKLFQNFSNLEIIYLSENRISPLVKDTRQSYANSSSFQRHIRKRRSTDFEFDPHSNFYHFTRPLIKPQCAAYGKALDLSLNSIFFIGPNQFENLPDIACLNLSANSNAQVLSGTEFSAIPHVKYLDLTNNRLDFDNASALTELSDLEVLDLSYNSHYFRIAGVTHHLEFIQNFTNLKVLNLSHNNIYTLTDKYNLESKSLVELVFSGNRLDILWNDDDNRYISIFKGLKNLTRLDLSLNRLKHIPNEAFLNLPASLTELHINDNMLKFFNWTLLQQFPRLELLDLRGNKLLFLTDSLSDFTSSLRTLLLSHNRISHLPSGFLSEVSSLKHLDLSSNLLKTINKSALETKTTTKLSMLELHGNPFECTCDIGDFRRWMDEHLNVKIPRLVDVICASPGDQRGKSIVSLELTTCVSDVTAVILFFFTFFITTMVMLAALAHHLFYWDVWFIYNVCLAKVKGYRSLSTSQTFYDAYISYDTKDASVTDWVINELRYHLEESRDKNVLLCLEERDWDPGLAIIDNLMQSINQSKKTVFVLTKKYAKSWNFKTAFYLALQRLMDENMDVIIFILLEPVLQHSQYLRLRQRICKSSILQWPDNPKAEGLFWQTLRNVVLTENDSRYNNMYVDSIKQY
Assay: Antagonist screen, hTLR8-NFκB-293 cells, NF-κB-luciferase reporter, with EC50 of R848
Assay type: cell-based
Conditions: compound at 0.5, 5, 50 μg/ml; EC50 concentration of R848; 16 h; NF-κB-luciferase
Procedure: The method is described in greater detail as follows. The cells for each individual cell clone (hTLR3-NFκB-293, hTLR7-NFκB-293, hTLR8-NFκB-293 and hTLR9-NFκB-293) were counted and seeded one day before the stimulation at 1.5×10^4 cells per well in 96-well cell culture plates. To become adherent the cells were incubated after seeding overnight at 37° C. in 5% CO2 humidified air.
The screen for each compound was performed at the same time for all of the receptors TLR3, TLR7, TLR8 and TLR9. Up to fifteen test compounds, each assayed in duplicate at each of three different final concentrations (0.5 μg/ml, 5 μg/ml, and 50 μg/ml), were used for 16 h cell stimulation on a single multiwell culture plate. A 4× final concentration master plate was created to prepare the different test compounds before they were added to the cells.
Controls were added as duplicates individually for each cell clone on the cell culture plate. Positive controls were used as follows (final concentrations): 50 μg/ml poly(I:C) for hTLR3-NFκB-293; 8 μM resiquimod (R848) for hTLR7-NFκB-293; 30 μM R848 for hTLR8-NFκB-293; and 2.5 μM CpG-ODN 2006 for hTLR9-NFκB-293. Media alone was used as negative control. After addition of controls and small molecules, the cell clones were additionally stimulated with the EC50 concentration of the appropriate receptor-specific ligand.
The mean value of wells H2 and H5 (each with cells and EC50 concentration of the appropriate receptor-specific ligand) divided by the mean of wells H3 and H6 (each with cells alone) yielded the baseline response (i.e., fold induction of luciferase activity) to EC50 concentration of the appropriate receptor-specific ligand.
After 16 h stimulation the supernatant was removed and the cells treated with lysis buffer and stored at −80° C. before measuring.
For each screen result a graphical documentation was performed.
The baseline result (measured with addition of the EC50 concentration of the receptor-specific ligand) for each cell culture plate was measured as described above. Antagonistic effects were measured by down regulation compared to the baseline. Antagonists were scored as follows: • 13: compounds for which there was clear down regulation at 0.5 μg/ml, 5 μg/ml, and 50 μg/ml; • 12: compounds for which there was clear down regulation at 5 μg/ml and 50 μg/ml; • 11: compounds for which there was clear down regulation only at 50 μg/ml; • —: compounds for which there was no clear down regulation even at 50 μg/ml. Agonists
Results were expressed as fold induction over baseline luciferase activity measured in the absence of R848. […] Additional screening was performed in like manner using additional small molecules selected from another library or specifically prepared for this purpose. Scoring is reported as above but as applied to TLR8.

Row | Compound | hTLR8 (inhibitory effect, antagonist score)
1 | CCOC(=O)c1cc([N+](=O)[O-])cc2c1-c1ccc([N+](=O)[O-])cc1C2=C(C#N)C#N [compound 1039] | 11 (compounds for which there was clear down regulation only at 50 μg/ml)
2 | CC(=O)Oc1cc(C)c(C2(c3cc(C(C)C)c(OC(C)=O)cc3C)OC(=O)c3ccccc32)cc1C(C)C [compound 1161] | 12 (compounds for which there was clear down regulation at 5 μg/ml and 50 μg/ml)
3 | Cc1cccc(CN2CCN(C(c3ccccc3)c3ccc(Cl)cc3)CC2)c1.Cl.Cl (centres unmarked) [compound 457, Meclozinedihydrochioride] | — (compounds for which there was no clear down regulation even at 50 μg/ml)
4 | Cc1cccc(C2(c3cccc(C)c3)OC(=O)c3ccccc32)c1 [compound 1308] | 12 (compounds for which there was clear down regulation at 5 μg/ml and 50 μg/ml)
5 | Cl.Cl.OCCN1CCN(CC/C=C2/c3ccccc3Sc3ccc(C(F)(F)F)cc32)CC1 [compound 340, Flupentixoldihydrochloride cis-(Z)] | 11 (compounds for which there was clear down regulation only at 50 μg/ml)
6 | CC1NCCc2c1[nH]c1ccccc21.Cl (racemic) [compound 619, Eleagnine hydrochloride (R,S)] | — (compounds for which there was no clear down regulation even at 50 μg/ml)
7 | O=C1c2c(O)cccc2Cc2cccc(O)c21 [compound 43, Anthralin] | 12 (compounds for which there was clear down regulation at 5 μg/ml and 50 μg/ml)
8 | Cl.Cl.c1ccc2c3c([nH]c2c1)C1C2CCC(C4CCCNC42)N1CC3 (centres unmarked) [compound 685, Nitrarine dihydorchloride] | — (compounds for which there was no clear down regulation even at 50 μg/ml)
9 | Maprotilinehydrochloride [compound 346] | 11 (compounds for which there was clear down regulation only at 50 μg/ml)
10 | CN(CCO)C(=O)c1cccc2c1-c1ccccc1C2=O [compound 890] | 11 (compounds for which there was clear down regulation only at 50 μg/ml)
11 | CN1CCCCC1CCN1c2ccccc2Sc2ccc([S+](C)[O-])cc21.O=S(=O)(O)c1ccccc1 (centres unmarked) [compound 529, Mesoridazine besylate] | — (compounds for which there was no clear down regulation even at 50 μg/ml)
12 | CC[C@]12CCCN3CCc4c(n(c5ccccc45)[C@](O)(C(=O)OC)C1)[C@@H]32 [compound 636, Epivincamine] | — (compounds for which there was no clear down regulation even at 50 μg/ml)
13 | NC(=O)c1cc(N)c2c(c1N)C(=O)c1ccccc1C2=O [compound 1158] | — (compounds for which there was no clear down regulation even at 50 μg/ml)
14 | CN1CCC(=C2c3ccccc3Sc3ccccc32)CC1.O=C(O)/C=C\C(=O)O [compound 294, Pimethixene maleate] | 11 (compounds for which there was clear down regulation only at 50 μg/ml)
15 | OCCN1CCN(CCCN2c3ccccc3Sc3ccc(Cl)cc32)CC1 [compound 125, Perphenazine] | 11 (compounds for which there was clear down regulation only at 50 μg/ml)
16 | CN1CCN(CCCN2c3ccccc3Sc3ccc(S(=O)(=O)N(C)C)cc32)CC1.CS(=O)(=O)O.CS(=O)(=O)O [compound 149, Thioproperasinedimesylate] | — (compounds for which there was no clear down regulation even at 50 μg/ml)
17 | CC(NCCC(c1ccccc1)c1ccccc1)c1ccccc1.Cl (centres unmarked) [compound 270, Fendiline hydrochloride] | 12 (compounds for which there was clear down regulation at 5 μg/ml and 50 μg/ml)
